According to publication PMC7432475, “β-Carbolines in Experiments on Laboratory Animals” (International Journal of Molecular Sciences, 2020):
pIC50: −log10 of the molar value. Values after ≈ are worked out from the molar mass of the structure shown. Read-outs that look alike come from different tables or passages of the source.

Experiments:
[1] = test system: mice; parameters: method as in PMID 16183262; conditions: H 5–15 mg/kg i.p., NH 2.5–10 mg/kg i.p.; cited from earlier work
[2] = test system: rats; parameters: method as in PMID 23107644; conditions: the two higher doses (5.0 mg/kg and 7.5 mg/kg); cited from earlier work
[3] = test system: MCF-7; parameters: method as in PMID 10612592; conditions: cited from earlier work
[4] = test system: KB; parameters: method as in PMID 10612592; conditions: cited from earlier work
[5] = test system: AG20445 (PD cells); assay: Real-time cell proliferation analysis by xCELLigence system, AG20445; type: cell-based, human; conditions: 24 h after treatment, range of 1–50 µM
Method: (§1) Normal human lung fibroblasts (MRC-5) were purchased from ECACC, and human skin fibroblasts isolated from a person with Parkinson’s disease (AG20445) were purchased from the Coriell Institute. The cells were cultured in Eagle’s Minimum Essential Medium (EMEM, Corning) supplemented with antibiotics (Penicillin-Streptomycin Solution (ATCC) and 10% or 15% FBS (Sigma-Aldrich), respectively. Both cell lines were cultured at 37 °C, with the addition of 5% CO2 to the atmosphere.
(§2) Cell proliferation analysis was performed using an xCELLigence system (Roche). The cells were seeded in sixteen-well E-plates (Roche) at a density of 7.5 × 10^3 per well. After 24 h, the cells were treated with H, NH, and both in final concentrations of 1, 5, 10, 25, 50, and 100 μM. The control cells were cultured in the supplemented medium only. The real-time proliferation of the cells was estimated based on impedance measurement, expressed as a Cell Index (CI) value. The CI was monitored at 30 min intervals from the time of plating for six days.

[6] = for share of the carboline taken in that was found in the blood: from average body mass, feed consumption and concentration in the feed; for increase of the carboline level in plasma versus control diet / Harman (ng/mL) in animal blood: stage I; for increase of the carboline level in plasma versus control diet: at the greatest addition to the diet; for Harman (ng/mL) in animal blood: fourteen weeks, n = 6
[7] = test system: SK-MEL-2; parameters: method as in PMID 10612592; conditions: cited from earlier work
[8] = test system: IA9; parameters: method as in PMID 10612592; conditions: cited from earlier work
[9] = test system: CAKI-1; parameters: method as in PMID 10612592; conditions: cited from earlier work
[10] = test system: A549; parameters: method as in PMID 10612592; conditions: cited from earlier work
[11] = test system: HEL; parameters: method as in PMID 10612592; conditions: cited from earlier work
[12] = test system: yeast and mammalian cells; parameters: method as in PMID 17545209; conditions: cited from earlier work
[13] = test system: U-87-MG; parameters: method as in PMID 10612592; conditions: cited from earlier work
[14] = test system: MRC-5 cells; assay: Real-time cell proliferation analysis by xCELLigence system, MRC-5; type: cell-based, human; conditions: for IC50 / pIC50: Homo sapiens, MRC5; for IC50: corresponds to ~50 µM, read-out: concentration giving 50% decrease in MRC-5 cell viability, converted; for pIC50: xCELLigence, read-out: concentration giving 50% decrease in MRC-5 cell viability; for cell proliferation rate compared to the control: 24 h after administration, 1–25 µM; for cytotoxic effect on the MRC-5 cell line: low concentration range (1–25 µM)
Method: as §1, §2

[15] = test system: AG20445 cells; assay: Apoptosis/necrosis assay (Casp 3/7-FITC/7-AAD flow cytometry), AG20445; type: cell-based, human; conditions: 24 h, 5, 10, and 25 µM (Figure S2b)
Method: as §1
(§3) The apoptosis/necrosis assay was performed by double staining with CellEvent Caspase 3/7-FITC (Thermo Fisher Scientific) and 7-aminoactinomycin D (BD Pharmigen) fluorescent dyes. Briefly, the cells (4 × 10^5) were seeded onto six-well plates and incubated until 70–80% confluency. On the next day, the cells were treated with β-carbolines in a final concentration of 5, 10, and 25 µM. Afterward, the cells were detached with trypsin (Thermo Fisher Scientific), washed twice with Dulbecco’s Phosphate Buffered Saline (Thermo Fisher Scientific), and stained with fluorescent dyes for 30 min at 37 °C in the dark, in line with the manufacturer’s protocol. Cells were analyzed immediately with 488 nm excitation using an Accuri C6 flow cytometer (Becton Dickinson).

[16] = test system: male Sprague Dawley rats; type: in vivo; conditions: stage 1; rats that received the lowest amounts of H and NH
[17] = test system: MRC-5 cells; assay: Apoptosis/necrosis assay (Casp 3/7-FITC/7-AAD flow cytometry), MRC-5; type: cell-based, human; conditions: 24 h, 5, 10, and 25 µM (Figure 2c)
Method: as §1, §3

[18] = test system: male Sprague Dawley rats; assay: Battery of behavioral tests, stage 1; type: in vivo; conditions: individual chemical standards added to the diet
Method: The experiment was conducted in the animal housing facility at the Institute of Human Nutrition and Dietetics, Poznań University of Life Sciences, under conditions of natural light and with the temperature maintained during the experiment at 19–22 °C, and with a relative humidity of 55–60%. Seventeen-month-old male Sprague Dawley rats originating from a Charles River Laboratories farm were used in the experiment. The age of the rats corresponded to 51 years of human life. For the first ten days of the experiment (the adaptation period), the rats were fed ad libitum with a standard laboratory diet and water. The experiment was conducted in two stages. […] The food consumption of the individual rats was monitored daily by measuring the difference between the amount of diet supplied each day and the amount of diet remaining. Feces were collected for ten days in the seventh week of the experiment, and water content, protein, fat, dietary fiber, and ash were determined using standard analytical methods. Body mass was measured every seven days using an electronic balance. […]
A classic labyrinth (110 × 65 cm) was used, with corridors about […], located on the table raised 50 cm from the ground. […] The time needed to complete the route between the two points of departure and arrival was measured. […]

[19] = test system: monoamine oxidase; parameters: method as in PMID 8957221; conditions: cited from earlier work
[20] = test system: primary mesencephalic dopaminergic cell culture derived from embryonic mice; conditions: cited from earlier work
[21] = in 100g, stage I
[22] = test system: α-synuclein; parameters: method as in PMID 20374418; conditions: primary dopaminergic cell cultures; cited from earlier work
[23] = test system: caspase-3; parameters: method as in PMID 17913302; conditions: primary mesencephalic dopaminergic cell culture from embryonic mice; cited from earlier work
[24] = test system: FAS, Gadd45a, Hspb1; Cxcl9, Irf1, Fasl, Icam1, Tnf, Vcam1; parameters: method as in PMID 17913302; conditions: cited from earlier work
[25] = test system: Artn, Bdnf, Egln1, Tgfb2, and Ncam1; parameters: method as in PMID 32285253; conditions: cited from earlier work
[26] = test system: rats; parameters: method as in PMID 22380576; conditions: compared with controls; cited from earlier work

For `Cc1nccc2c1[nH]c1ccccc12` [H, harman], the “antidepressant action on mice” value [1] is given as “positive effects”, the “errors in working memory” value [2] is given as “significantly fewer errors in working memory” and the ED50 [3] is given as 19.0 µg/mL (≈ 104 µM). For the same molecule, the ED50 [4] was 8.9 µg/mL (≈ 48.8 µM), the “CI values (proliferation)” value [5] was “significant increase in CI values” and the “share of the carboline taken in that was found in the blood” value [6] was “about 0.15%”. For the same molecule, the “increase of the carboline level in plasma versus control diet” value [6] was “increased by a factor of about four”, the “Harman (ng/mL) in animal blood” value ([6]; group H1 = 10 µg H/kg of exp. diet) was 0.038 ng/mL and the “Harman (ng/mL) in animal blood” value ([6]; group H2 = 15 µg H/kg of exp. diet) was 0.052 ng/mL. The “Harman (ng/mL) in animal blood” value ([6]; group H3 = 20 µg H/kg of exp. diet) was 0.084 ng/mL, the ED50 [7] was > 20 µg/mL and the ED50 [8] was 6.1 µg/mL (≈ 33.5 µM). The ED50 [9] was 8.0 µg/mL (≈ 43.9 µM), the ED50 [10] was 9.3 µg/mL (≈ 51 µM) and the ED50 [11] was 9.8 µg/mL (≈ 53.8 µM). The “protective effect against H2O2 and paraquat oxidative agents” value [12] was “significant protective effect”, the ED50 [13] was 19.0 µg/mL (≈ 104 µM) and the IC50 [14] was 9.11 µg/mL. The pIC50 [14] was ~4.30, the “cell proliferation rate compared to the control” value ([14]; MRC-5) was “significant increase in the cell proliferation rate” and the “cytotoxic effect on the MRC-5 cell line” value [14] was “neither H nor NH showed any cytotoxic effect”. The induction of apoptosis [15] was “do not induce apoptosis”, the “Porsolt test: mobility” value [16] was “more mobile than the control animals” and the induction of apoptosis [17] was “do not induce apoptosis”. For the same molecule, the “effect on the animals' behavior” value [18] was “did not produce a very marked effect” and the monoamine oxidase inhibition [19] was “potent monoamine oxidase inhibitor”.

In the case of `Cn1c2ccccc2c2cc[n+](C)cc21` [2,9-dimethyl-BC], the ATP content [20] is given as “decreased”, the free radical production [20] is given as “increased” and the mitochondrial membrane potential [20] is given as “decreased”. The respiratory activity [20] was “decreased” and the “toxic effects on dopaminergic neurons and other cell constituents” value ([20]; primary dopaminergic culture) was “highly toxic effects”.

In the case of `c1ccc2c(c1)[nH]c1cnccc12` [NH, norharman], the “antidepressant action on mice” value [1] is listed as “positive effects”, the “IDF [g] (insoluble dietary fiber) in feces” value (from here on “IDF [g]”) ([21]; group NH1 (8 µg NH/kg diet)) is listed as 55,36 g and the “SDF [g] (soluble dietary fiber) in feces” value ([21]; group NH1 (8 µg NH/kg diet)) is listed as 0,04 g. The “IDF [g]” value ([21]; group NH2 (12 µg NH/kg diet)) was 54,46 g, the “SDF [g] (soluble dietary fiber) in feces” value ([21]; group NH2 (12 µg NH/kg diet)) was 0,06 g and the “IDF [g]” value ([21]; group NH3 (16 µg NH/kg diet)) was 53,97 g. The “SDF [g] (soluble dietary fiber) in feces” value ([21]; group NH3 (16 µg NH/kg diet)) was 0,07 g, the “CI values (proliferation)” value [5] was “significant increase in CI values” and the “share of the carboline taken in that was found in the blood” value [6] was “about 0.5%”. The “increase of the carboline level in plasma versus control diet” value [6] was “increased two-fold”, the IC50 [14] was 8.41 µg/mL and the pIC50 [14] was ~4.30. For the same molecule, the “cell proliferation rate compared to the control” value ([14]; MRC-5) was “significant increase in the cell proliferation rate”, the “proliferation rate (ranking)” value ([14]; MRC-5, final concentrations of 1, 5, and 10 μM) was “greatest proliferation rate” and the “cytotoxic effect on the MRC-5 cell line” value [14] was “neither H nor NH showed any cytotoxic effect”. The induction of apoptosis [15] was “do not induce apoptosis”, the “Porsolt test: mobility” value [16] was “more mobile than the control animals” and the induction of apoptosis [17] was “do not induce apoptosis”. For the same molecule, the “effect on the animals' behavior” value [18] was “did not produce a very marked effect”.

In the case of `Cn1c2ccccc2c2ccncc21` [9-me-BC, 9-methyl-β-carboline], the “content of α-synuclein” value [22] is listed as “lowered”, the caspase-3 activity [23] is listed as “decrease of caspase-3 activity” and the “expression of inflammation-related genes like Cxcl9, Irf1, Fasl, Icam1, Tnf, and Vcam1” value [24] is listed as “reduced”. For the same molecule, the “expression of proteins in apoptosis-relevant pathways like FAS, Gadd45a, and Hspb1” value [24] was “downregulated”, the “gene expression of neurotrophic factors like Artn, Bdnf, Egln1, Tgfb2, and Ncam1” value [25] was “stimulated” and the “number of dopaminergic neurons” value ([20]; concentration-dependent manner) was “capable of increasing the number of dopaminergic neurons”. For the same molecule, the “number of necrotic cells” value ([20]; primary mesencephalic dopaminergic cell culture from embryonic mice) was “reduced the number of necrotic cells” and the “acquisition in a hippocampus-dependent task” value [26] was “significantly accelerated acquisition”.
